pIC50: −log10 of the molar value.
Target: T1, human VR1 (Homo sapiens, UniProt Q8NER1)
T1 construct: expressed in transfected cells
Experiment: Capsaicin-induced Ca2+ influx in the human VR1-transfected CHO cell line (Assay 1)
Type: cell-based
Conditions: stimulation with 10 nM capsaicin; human VR1-CHOluc9aeq cells; read-out: activity class (IC50)
Description: [Measurement of Capsaicin-induced Ca^2+ Influx in the Human VR1-transfected CHO Cell Line](Assay 1)
(1) Establishment of the Human VR1-CHOluc9aeq Cell Line
Human vanilloid receptor (hVR1) cDNA was cloned from libraries of axotomized dorsal root ganglia (WO 00/29577). The cloned hVR1 cDNA was constructed with pcDNA3 vector and transfected into a CHOluc9aeq cell line. The cell line contains aequorin and CRE-luciferase reporter genes as read-out signals. The transfectants were cloned by limiting dilution in selection medium (DMEM/F12 medium (Gibco BRL) supplemented with 10% FCS, 1.4 mM Sodium pyruvate, 20 mM HEPES, 0.15% Sodium bicarbonate, 100 U/ml penicillin, 100 μg/ml streptomycin, 2 mM glutamine, non-essential amino acids and 2 mg/ml G418). Ca^2+ influx was examined in the capsaicin-stimulated clones. A high responder clone was selected and used for further experiments in the project. The human VR1-CHOluc9aeq cells were maintained in the selection medium and passaged every 3-4 days at 1-2.5×10^5 cells/flask ([…]).
(2) Measurement of Ca^2+ Influx Using FDSS-3000
Human VR1-CHOluc9aeq cells were suspended in a culture medium which is the same as the selection medium except for G418 and seeded at a density of 1,000 cells per well into 384-well plates (black walled clear-base/Nalge Nunc International). Following the culture for 48 hrs the medium was changed to 2 μM Fluo-3 AM (Molecular Probes) and 0.02% Puronic F-127 in assay buffer (Hank's balanced salt solution (HBSS), 17 mM HEPES (pH7.4), 1 mM Probenecid, 0.1% BSA) and the cells were incubated for 60 min at 25° C. After washing twice with assay buffer the cells were incubated with a test compound or vehicle for 20 min at 25° C. Mobilization of cytoplasmic Ca^2+ was measured by FDSS-3000 (λex=488 nm, λem=540 nm/Hamamatsu Photonics) for 60 sec after the stimulation with 10 nM capsaicin. Integral R was calculated and compared with controls.

T1 sequence (Q8NER1 whole entry): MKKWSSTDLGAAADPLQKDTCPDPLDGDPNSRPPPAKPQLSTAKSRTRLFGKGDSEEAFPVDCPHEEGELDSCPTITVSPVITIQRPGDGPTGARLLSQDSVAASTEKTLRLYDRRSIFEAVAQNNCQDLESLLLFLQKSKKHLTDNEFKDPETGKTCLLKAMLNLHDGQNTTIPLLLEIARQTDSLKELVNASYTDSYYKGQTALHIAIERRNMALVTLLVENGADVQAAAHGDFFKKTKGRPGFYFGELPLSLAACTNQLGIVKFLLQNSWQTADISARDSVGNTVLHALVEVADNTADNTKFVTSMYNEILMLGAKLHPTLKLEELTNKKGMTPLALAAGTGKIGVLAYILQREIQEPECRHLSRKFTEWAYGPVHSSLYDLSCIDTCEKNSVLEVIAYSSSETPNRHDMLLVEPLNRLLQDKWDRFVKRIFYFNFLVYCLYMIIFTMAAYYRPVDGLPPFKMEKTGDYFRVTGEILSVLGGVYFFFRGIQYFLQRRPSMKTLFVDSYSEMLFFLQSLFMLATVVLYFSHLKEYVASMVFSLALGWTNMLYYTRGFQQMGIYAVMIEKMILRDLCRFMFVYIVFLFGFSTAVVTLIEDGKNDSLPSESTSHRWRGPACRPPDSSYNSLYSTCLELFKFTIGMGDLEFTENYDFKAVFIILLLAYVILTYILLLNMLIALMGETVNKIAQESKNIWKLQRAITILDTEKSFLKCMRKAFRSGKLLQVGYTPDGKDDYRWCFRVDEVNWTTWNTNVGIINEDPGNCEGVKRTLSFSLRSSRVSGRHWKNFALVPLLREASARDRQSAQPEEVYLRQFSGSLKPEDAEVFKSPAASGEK

`CC1CCc2cccc(NC(=O)Nc3ccc(Cl)c(C(F)(F)F)c3)c2C1` (stereo not drawn) [Example 3-1] and `O=C(Nc1ccc(Cl)c(C(F)(F)F)c1)Nc1cccc2c1CC(CO)CC2` (stereo not drawn) [Example 4-1, N-[4-Chloro-3-(trifluoromethyl)phenyl]-N′-[7-(hydroxymethyl)-5,6,7,8-tetrahydronaphthalen-1-yl]urea] cannot be ordered by pIC50: over 7.00 for the first, over 7.00 for the second.

First: CC(=O)OC1Cc2cccc(NC(=O)Nc3ccc(Cl)c(C(F)(F)F)c3)c2C1 (stereo not drawn) [Example 1-1]
Second: COC1Cc2cccc(NC(=O)Nc3ccc(Cl)c(C(F)(F)F)c3)c2CC1O (stereo not drawn) [2-8]
The pIC50 of the first is lower: 6.00 to 6.30 for the first, 6.30 to 7.00 for the second.

`O=C(NCc1ccccn1)Nc1cccc2c1CC(O)CC2` (stereo not drawn) [Example 1-9] and `O=C(NCc1cccnc1)Nc1cccc2c1CC(O)CC2` (stereo not drawn) [1-5] fall in the same range of pIC50: 6.00 to 6.30 for the first, 6.00 to 6.30 for the second.

First: O=C(Nc1cccc(-c2ccncc2)c1)Nc1cccc2c1CC(O)CC2 (stereo not drawn) [Example 1-11]
Second: O=C(Nc1ccc(Oc2ccncc2)cc1)Nc1cccc2c1CC(O)CC2 (stereo not drawn) [1-4]
The pIC50 of the first is higher: over 7.00 for the first, 6.30 to 7.00 for the second.

First: O=C(Nc1cccc2c1CC(O)CC2)NC1CCc2ccccc21 (stereo not drawn) [1-3]
Second: O=C(Nc1cccc2c1CC(O)CC2)NC1CCCc2ccccc21 (stereo not drawn) [1-7]
The pIC50 of the first is lower: 6.30 to 7.00 for the first, over 7.00 for the second.

`COc1ccccc1C(=O)Nc1cccc2c1CC(O)CC2` (stereo not drawn) [1-2] and `O=C(Cc1cccc(Br)c1)Nc1cccc2c1CC(O)CC2` (stereo not drawn) [1-4] fall in the same range of pIC50: 6.00 to 6.30 for the first, 6.00 to 6.30 for the second.

`O=C(Nc1ccc(Cl)c(C(F)(F)F)c1)Nc1cccc2c1CC(O)C(O)C2` (stereo not drawn) [2-7] and `COC1Cc2c(cccc2NC(=O)Nc2ccc(Cl)c(C(F)(F)F)c2)CC1O` (stereo not drawn) [Example 2-9] cannot be ordered by pIC50: over 7.00 for the first, over 7.00 for the second.

`O=C(Nc1cccc2c1CC(O)CC2)c1cc2cc(Cl)ccc2[nH]1` (stereo not drawn) [Example 1-1] and `O=C(Nc1cccc2c1CC(O)CC2)c1ccc(C(F)(F)F)cc1` (stereo not drawn) [1-3] fall in the same range of pIC50: 6.30 to 7.00 for the first, 6.30 to 7.00 for the second.

`O=C(NCc1ccc(C(F)(F)F)nc1)Nc1cccc2c1CC(O)CC2` (stereo not drawn) [Example 1-12] and `Cl.O=C(NCc1ccc(C(F)(F)F)nc1)Nc1cccc2c1CC(O)CC2` (stereo not drawn) [Example 1-13] cannot be ordered by pIC50: over 7.00 for the first, over 7.00 for the second.

`O=C(Nc1ccc(Cl)c(C(F)(F)F)c1)Nc1cccc2c1CCC2O` (stereo not drawn) [1-3] and `O=C(Nc1ccc(Cl)c(C(F)(F)F)c1)Nc1cccc2c1CCC(O)C2` (stereo not drawn) [Example 2-3, N-[4-Chloro-3-(trifluoromethyl)phenyl]-N′-(6-hydroxy-5,6,7,8-tetrahydronaphthalen-1-yl)urea] cannot be ordered by pIC50: over 7.00 for the first, over 7.00 for the second.

First: O=C(NCc1ccc2c(c1)OCO2)Nc1cccc2c1CC(O)CC2 (stereo not drawn) [Example 1-10]
Second: O=C(Nc1ccc2c(c1)OCO2)Nc1cccc2c1CC(O)CC2 (stereo not drawn) [Example 1-1]
The pIC50 of the first is higher: over 7.00 for the first, 6.00 to 6.30 for the second.

`O=C(NCc1ccc(C(F)(F)F)cc1)Nc1cccc2c1CCC(O)C2` (stereo not drawn) [2-6] and `O=C1CCc2c(cccc2NC(=O)NCc2ccc(C(F)(F)F)cc2)C1` [2-5] cannot be ordered by pIC50: over 7.00 for the first, over 7.00 for the second.

First: O=C(NCc1ccc(-c2csnn2)cc1)Nc1cccc2c1CC(O)CC2 (stereo not drawn) [1-8]
Second: O=C(NCc1ccncc1)Nc1cccc2c1CC(O)CC2 (stereo not drawn) [1-6]
The pIC50 of the first is higher: over 7.00 for the first, 6.00 to 6.30 for the second. The first is the more potent here.

First: CCOC1=CCc2c(cccc2NC(=O)NCc2ccc(C(F)(F)F)cc2)C1 [2-4]
Second: CC(=O)OC1Cc2cccc(NC(=O)NCc3ccc(C(F)(F)F)cc3)c2C1 (stereo not drawn) [1-2]
The pIC50 of the first is lower: 6.00 to 6.30 for the first, over 7.00 for the second.

First: O=C1CCc2c(cccc2NC(=O)Nc2ccc(Cl)c(C(F)(F)F)c2)C1 [Example 2-2]
Second: CC(C)(C)c1cc(NC(=O)Nc2cccc3c2CC(O)CC3)no1 (stereo not drawn) [1-2]
The pIC50 of the first is higher: over 7.00 for the first, 6.30 to 7.00 for the second.

System: not given
Experiment: not given
Conditions: not given

Going from `O=C(NCc1ccccn1)Nc1cccc2c1CC(O)CC2` (stereo not drawn) [Example 1-9] to `O=C(NCc1cccnc1)Nc1cccc2c1CC(O)CC2` (stereo not drawn) [Example 1-5], the melting point falls from 230 °C to 203 °C.

Compared with `O=C(Nc1cccc(-c2ccncc2)c1)Nc1cccc2c1CC(O)CC2` (stereo not drawn) [Example 1-11], `O=C(Nc1ccc(Oc2ccncc2)cc1)Nc1cccc2c1CC(O)CC2` (stereo not drawn) [Example 1-4] is lower in melting point: 208 °C for the first, 200 to 202 °C for the second.

First: O=C(Nc1cccc2c1CC(O)CC2)NC1CCCc2ccccc21 (stereo not drawn) [Example 1-7]
Second: O=C(Nc1cccc2c1CC(O)CC2)NC1CCc2ccccc21 (stereo not drawn) [Example 1-3]
The melting point of the first is higher: 216 °C for the first, 193 to 195 °C for the second.

First: O=C(Nc1ccc2c(c1)OCO2)Nc1cccc2c1CC(O)CC2 (stereo not drawn)
Second: O=C(NCc1ccc2c(c1)OCO2)Nc1cccc2c1CC(O)CC2 (stereo not drawn) [Example 1-10]
The melting point of the first is higher: 209 to 211 °C for the first, 190 °C for the second.

Compared with `O=C(NCc1ccc(C(F)(F)F)nc1)Nc1cccc2c1CC(O)CC2` (stereo not drawn) [Example 1-12], `Cl.O=C(NCc1ccc(C(F)(F)F)nc1)Nc1cccc2c1CC(O)CC2` (stereo not drawn) [Example 1-13] is lower in melting point: 211 to 212 °C for the first, 204 to 205 °C for the second.

First: COC1Cc2c(cccc2NC(=O)Nc2ccc(Cl)c(C(F)(F)F)c2)CC1O (stereo not drawn) [Example 2-9]
Second: CC(=O)OC1Cc2cccc(NC(=O)Nc3ccc(Cl)c(C(F)(F)F)c3)c2C1 (stereo not drawn) [Example 1-1, 4-[({[4-Chloro-3-(trifluoromethyl)phenyl]amino}carbonyl)amino]-2,3-dihydro-1H-inden-2-yl acetate]
The melting point of the first is lower: 112 to 127 °C for the first, 207 to 209 °C for the second.

Compared with `O=C(NCc1ccc(C(F)(F)F)cc1)Nc1cccc2c1CCC(O)C2` (stereo not drawn) [Example 2-6], `O=C1CCc2c(cccc2NC(=O)NCc2ccc(C(F)(F)F)cc2)C1` [Example 2-5] is higher in melting point: 205 °C for the first, 221 °C for the second.

Compared with `O=C(NCc1ccc(-c2csnn2)cc1)Nc1cccc2c1CC(O)CC2` (stereo not drawn) [Example 1-8], `O=C(NCc1ccncc1)Nc1cccc2c1CC(O)CC2` (stereo not drawn) [Example 1-6] is higher in melting point: 225 °C for the first, 243 °C for the second.

First: COc1ccccc1C(=O)Nc1cccc2c1CC(O)CC2 (stereo not drawn) [Example 1-2]
Second: O=C(Nc1cccc2c1CC(O)CC2)c1ccc(C(F)(F)F)cc1 (stereo not drawn) [Example 1-3]
The melting point of the first is lower: 184 to 186 °C for the first, 217 to 218 °C for the second.

Compared with `O=C(Nc1ccc(Cl)c(C(F)(F)F)c1)Nc1cccc2c1CCC2O` (stereo not drawn) [Example 1-3], `O=C(Nc1ccc(Cl)c(C(F)(F)F)c1)Nc1cccc2c1CCC(O)C2` (stereo not drawn) [Example 2-3, N-[4-Chloro-3-(trifluoromethyl)phenyl]-N′-(6-hydroxy-5,6,7,8-tetrahydronaphthalen-1-yl)urea] is lower in melting point: 221 to 223 °C for the first, 216 °C for the second.

First: O=C1CCc2c(cccc2NC(=O)Nc2ccc(Cl)c(C(F)(F)F)c2)C1 [Example 2-2, N-[4-Chloro-3-(trifluoromethyl)phenyl]-N′-(6-oxo-5,6,7,8-tetrahydronaphthalen-1-yl)urea]
Second: CCOC1=CCc2c(cccc2NC(=O)Nc2ccc(Cl)c(C(F)(F)F)c2)C1 [Example 2-1, N-[4Chloro-3-(trifluoromethyl)phenyl]-N′-(6-ethoxy-5,8-dihydronaphthalen-1-yl)urea]
The melting point of the first is higher: 219 °C for the first, 216 °C for the second.

Compared with `CC(=O)OC1Cc2cccc(NC(=O)NCc3ccc(C(F)(F)F)cc3)c2C1` (stereo not drawn) [Example 1-2], `CCOC1=CCc2c(cccc2NC(=O)NCc2ccc(C(F)(F)F)cc2)C1` [Example 2-4] is higher in melting point: 166 to 168 °C for the first, 235 °C for the second.
